From patent publication US9914733B2, “Biisoquinoline compounds and methods of treatment” (UNIVERSITY OF FLORIDA RESEARCH FOUNDATION, priority 2014, dated 2018)
Where two headings read alike, the source gives them in different places.

Experiments:
T47D cells = assay: Clonogenic cell growth inhibition assay, T47D; format: cell-based, human; conditions: for IC50: Homo sapiens, T47D triple-positive breast cancer cells, 48 h treatment, colonies counted after additional 10 days, read-out: IC50, drug concentration required for 50% growth inhibition
Description: (§1) The following human breast cancer cell lines were used in these studies: (a) Triple-positive: BT474, MCF7 and T47D, (b) Triple-negative: MDA-MB231 and MDA-MB468. Cells were grown in the following medium at 37° C. under a humidified atmosphere of 5% CO2: DMEM (BT474 cells), RPMI (MCF7 and T47D cells) and MEM (MDA-MB231 and MDA-MB468 cells). For each cell line, the medium was supplemented with 10% fetal bovine serum (Hyclone, Logan, Utah) 100 U/ml of penicillin, and 100 μg/ml of streptomycin.
(§2) Cells were trypsinized and a single cell suspension was prepared. Cells were plated at a density of 5×10^2-1×10^3 cells in 60 mm tissue culture plates. After the attachment, cells were treated with different concentrations of biisoquinolines 1a-d for 48 h. After the treatment, medium containing drug was removed and supplemented with fresh medium. Cells were allowed to grow into colonies for additional 10 days. Colonies were fixed, stained with 0.3% (w/v) methylene blue, and excess of the dye was removed after washing with PBS. Colonies containing more than fifty cells were counted and the IC50 values, i.e., drug concentrations required for 50% growth inhibition of these cell lines were determined as described in our previous studies. [Balusu, R.; Jaiswal, A. S.; Armas, M. L.; Kundu, C. N.; Bloom L, B.; Narayan S. Biochemistry 2007, 46, 13961; Jaiswal, A, S.; Banerjee, S.; Panda, H.; Bulkini, C. D.; Izumi, T.; Sarkar, F. H.; Ostrov, D. A.; Narayan, S. Mol. Cancer Res. 2009, 7, 1973] The IC50 of each compound was determined from the survival curve using the SigmaPlot-10.0 software program.

MCF7 cells = assay: Clonogenic cell growth inhibition assay, MCF7; format: cell-based, human; conditions: for IC50: Homo sapiens, MCF7 triple-positive breast cancer cells, 48 h treatment, colonies counted after additional 10 days, read-out: IC50, drug concentration required for 50% growth inhibition
Description: as §1, §2

MDA-MB468 cells = assay: Clonogenic cell growth inhibition assay, MDA-MB468; format: cell-based; conditions: Homo sapiens, MDA-MB-468; MDA-MB468 triple-negative breast cancer cells; 48 h treatment, colonies counted after additional 10 days; read-out: IC50, drug concentration required for 50% growth inhibition
Description: as §1, §2

BT474 cells = assay: Clonogenic cell growth inhibition assay, BT474; format: cell-based; conditions: Homo sapiens, BT-474; BT474 triple-positive breast cancer cells; 48 h treatment, colonies counted after additional 10 days; read-out: IC50, drug concentration required for 50% growth inhibition
Description: as §1, §2

MDA-MB231 cells = assay: Clonogenic cell survival / cell growth inhibition assay, MDA-MB231; format: cell-based, human; conditions: for IC50: 48 h treatment, colonies counted after additional 10 days, read-out: IC50, drug concentration required for 50% growth inhibition; for toxicity to cells (result in words): MDA-MB231 cells, clonogenic assay
Description: as §1, §2
6,6′,7,7′-tetramethoxy biisoquinoline-imidazolium 1a, as well as its precursor compounds, bisamide 3a, and diimine 4a, were tested for the growth inhibitory effect on MDA-MB-231 cells by using the clonogenic cell survival assay [Balusu, R.; Jaiswal, A. S.; Armas, M. L.; Kundu, C. N.; Bloom L, B.; Narayan S. Biochemistry 2007, 46, 13961; Jaiswal, A, S.; Banerjee, S.; Panda, H.; Bulkin, C. D.; Izumi, T.; Sarkar, F. H.; Ostrov, D. A.; Narayan, S. Mol. Cancer Res. 2009, 7, 1973]. […] Then, three other methoxylated biisoquinoline-imidazolium compounds (1b-d) were tested to probe the optimal methoxy substitution pattern.

[1] = Homo sapiens, MDA-MB-231, MDA-MB231 triple-negative breast cancer cells
[2] = MDA-MB231 triple-negative breast cancer cells

IC50 (T47D cells) [µM] | IC50 (MCF7 cells) [µM] | IC50 (MDA-MB468 cells) [µM] | IC50 (BT474 cells) [µM] | fold higher IC50 than compound 1c (MCF7 cells; MCF7 cells, IC50 of noscapine relative to IC50 of 1c) [folds] | SMILES | IC50 (MDA-MB231 cells; [1]) [µM] | IC50 (MDA-MB231 cells; [2]) [µM] | toxicity to cells (result in words) (MDA-MB231 cells) | sensitivity of cells to the compound (result in words) (T47D cells; T47D cells, clonogenic assay) | sensitivity of cells to the compound (result in words) (MCF7 cells; MCF7 cells, clonogenic assay) | fold higher IC50 than compound 1c (MDA-MB231 cells; MDA-MB-231 cells, IC50 of noscapine relative to IC50 of 1c) [folds]
34 | 35 | 2.6 | 3.1 |  | COc1cc2c(cc1OC)-c1c3[n+](cn1CC2)CCc1cc(OC)c(OC)cc1-3 [1a, 2,2′,3,3′-tetramethoxy-5,6,8,9-tetrahydro-6a,7a-diazadibenzo[c,g]fluorenium]chloride] | 19 | 20.8 |  |  |  | 
13.5 | 7.9 | 2.1 | 0.7 |  | COc1ccc2c(c1OC)CCn1c[n+]3c(c1-2)-c1ccc(OC)c(OC)c1CC3 [1b, 3,3′,4,4′-tetramethoxy-5,6,8,9-tetrahydro-6a,7a-diazadibenzo[c,g]fluorenium]chloride] | 18.2 | 14.2 |  |  |  | 
1 | 1.3 | 1.8 | 0.3 |  | COc1ccc2c(c1)CCn1c[n+]3c(c1-2)-c1ccc(OC)cc1CC3 [1c, 3,3′-dimethoxy-5,6,8,9-tetrahydro-6a,7a-diazadibenzo[c,g]fluorenium]chloride] | 4.7 | 2.4 |  |  |  | 
 |  |  |  |  | COc1cc2c(c(OC)c1OC)CCn1c[n+]3c(c1-2)-c1cc(OC)c(OC)c(OC)c1CC3.[Cl-] [1d, 2,2′,3,3′,4,4′-hexamethoxy-5,6,8,9-tetrahydro-6a,7a-diazadibenzo[c,g]fluorenium]chloride] |  |  | did not show any toxicity |  |  | 
 |  | 35.4 | 34.1 |  | COc1cccc(CCNC(=O)C(=O)NCCc2cccc(OC)c2OC)c1OC [3b, N^1,N^2-bis(2,3-dimethoxyphenethyl)oxalamide] |  |  | did not show any cytotoxicity | resistant | resistant | 
 |  |  |  |  | COc1cc2c(cc1OC)C(C1=NCCc3cc(OC)c(OC)cc31)=NCC2 [4a, 6,6′,7,7′-tetramethoxy-3,3′,4,4′-tetrahydro-1,1′-biisoquinoline] |  |  | non-toxic |  |  | 
 | 57 |  |  | 44 | COc1ccc2c(c1OC)C(=O)O[C@@H]2[C@H]1c2c(cc3c(c2OC)OCO3)CCN1C [noscapine, reference compound] | 64 |  |  |  |  | 16
